The values below are quoted from earlier work in patent US20230065964A1, “COMPOSITION FOR ENHANCING UROLITHIN PRODUCTION IN A HUMAN SUBJECT” (Migalis ApS, priority 2020, published 2023).

For one data set, the system named is Chaenorhabditis elegans. Conditions: for Pharyngeal pumping rate and mobility: during aging.
The test system of data set [1] is skeletal muscle of humans. Conditions: 28 days oral administration, 500 mg/d and 1000 mg/d.

For `O=c1oc2cc(O)ccc2c2ccc(O)cc12` [Urolithin A, urolithin A], in the data set on Chaenorhabditis elegans, the “Pharyngeal pumping rate and mobility” value is recorded as “improved”. Further, the mitochondrial biogenesis result in the data set on Chaenorhabditis elegans (older worms) is “activated”. Also, in the data set on Chaenorhabditis elegans (throughout the duration of the treatment), the mitophagy result is “activated mitophagy”. Further, in the data set on old mice, the Lean muscle mass entry is reported as “did not increase”, the “greater level of spontaneous exercise (muscle function)” value is reported as 57% and the “greater running endurance (endurance capacity)” value is reported as 42%. In addition, in the data set with old mice (molecular level), the “expression of autophagy and mitophagy transcripts” value is reported as “general tendency for a higher expression”. Besides, the “mitochondrial biogenesis in the skeletal muscle” value in data set [1] was “stimulated”.
`O=c1oc2cc(O)ccc2c2cc(O)c(O)cc12` [urolithin C]: the “Pharyngeal pumping rate and mobility” value with Chaenorhabditis elegans is recorded as “mild to no benefit”.
On to `O=c1oc2c(O)c(O)ccc2c2cc(O)c(O)cc12` [urolithin D], for which the “Pharyngeal pumping rate and mobility” value in the data set on Chaenorhabditis elegans is “mild to no benefit”.
